Structures are written as SMILES. Like-named read-outs stand apart in the source and are kept apart here.

The assay addresses T1, human APJ receptor (Homo sapiens, UniProt P35414).
T1 construct: expressed in transfected cells; host or cells: HEK293
T1 sequence (P35414 1-380): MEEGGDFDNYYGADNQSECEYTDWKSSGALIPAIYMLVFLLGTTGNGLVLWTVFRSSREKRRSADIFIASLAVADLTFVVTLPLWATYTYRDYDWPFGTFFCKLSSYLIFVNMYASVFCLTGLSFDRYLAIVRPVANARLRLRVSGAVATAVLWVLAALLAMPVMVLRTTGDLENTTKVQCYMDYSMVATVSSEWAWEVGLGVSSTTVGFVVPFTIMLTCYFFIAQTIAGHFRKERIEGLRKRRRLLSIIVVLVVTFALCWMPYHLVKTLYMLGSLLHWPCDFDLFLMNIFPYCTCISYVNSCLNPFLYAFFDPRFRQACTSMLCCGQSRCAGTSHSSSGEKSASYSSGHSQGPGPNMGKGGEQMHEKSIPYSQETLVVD
Description: Intracellular cAMP accumulation assay (APJ hcAMP, HTRF). The class given is cell-based. The following applies: HEK293 cells stably expressing human APJ receptor, inhibition of forskolin-mediated cAMP production. The method, boiled down:
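Inhibition of forskolin (2 μM)-driven cAMP, with […], measured by HTRF after 30 min room-temperature compound exposure of stably transfected HEK293 cells. cAMP read from a standard curve; variable-slope fit gives EC50, and maximal inhibition is normalised to (Pyr1)apelin-13 as 100%.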

The mark [1] stands for this setting: read-out: APJ cAMP Potency range.

`CCc1cccc(CC)c1-n1c(-c2ccn(CC)n2)nc(=O)c(Cc2ccc(-c3ccncc3C)c(F)c2)c1O` [Example 76, 1-(2,6-diethylphenyl)-2-(1-ethyl-1H-pyrazol-3-yl)-5-{[3-fluoro-4-(3-methylpyridin-4-yl)phenyl]methyl}-6-hydroxy-1,4-dihydropyrimidin-4-one]: under setting [1], the EC50 was in the range of 0.01 to 10 nM. Consider `CCc1cccc(CC)c1-n1c(-c2ccn(CC)n2)nc(=O)c(Cc2ccc(-c3ccnc(F)c3C)c(F)c2)c1O` [Example 77, 1-(2,6-diethylphenyl)-2-(1-ethyl-1H-pyrazol-3-yl)-5-{[3-fluoro-4-(2-fluoro-3-methylpyridin-4-yl)phenyl]methyl}-6-hydroxy-1,4-dihydropyrimidin-4-one], for which the EC50 under setting [1] lay within 0.01 to 10 nM. Still for that read-out and setting: with `CCc1cccc(CC)c1-n1c(-c2csc(C)n2)nc(=O)c(Cc2ccc(-c3ccnc(F)c3C)c(F)c2)c1O` [Example 78, 1-(2,6-diethylphenyl)-5-{[3-fluoro-4-(2-fluoro-3-methylpyridin-4-yl)phenyl]methyl}-6-hydroxy-2-(2-methyl-1,3-thiazol-4-yl)-1,4-dihydropyrimidin-4-one] the figure was 0.01 to 10 nM. Still for that read-out and setting: with `CCc1cccc(CC)c1-n1c(-c2nc(C)cs2)nc(=O)c(Cc2ccc(-c3ccc(F)nc3C)c(F)c2)c1O` [Example 79, 1-(2,6-diethylphenyl)-5-{[3-fluoro-4-(6-fluoro-2-methylpyridin-3-yl)phenyl]methyl}-6-hydroxy-2-(4-methyl-1,3-thiazol-2-yl)-1,4-dihydropyrimidin-4-one] the figure was 0.01 to 10 nM. Consider `CCc1cccc(CC)c1-n1c(-c2ccn(CC)n2)nc(=O)c(Cc2ccc(-c3ccc(F)nc3C)c(F)c2)c1O` [Example 80, 1-(2,6-diethylphenyl)-2-(1-ethyl-1H-pyrazol-3-yl)-5-{[3-fluoro-4-(6-fluoro-2-methylpyridin-3-yl)phenyl]methyl}-6-hydroxy-1,4-dihydropyrimidin-4-one], for which the EC50 under setting [1] lay within 0.01 to 10 nM. Turning to `CCc1cccc(CC)c1-n1c(-c2nc(C)cs2)nc(=O)c(Cc2ccc(-c3ccc(F)cc3C(N)=O)c(F)c2)c1O` [Example 82, 4′-{[1-(2,6-diethylphenyl)-6-hydroxy-2-(4-methyl-1,3-thiazol-2-yl)-4-oxo-1,4-dihydropyrimidin-5-yl]methyl}-2′,4-difluoro-[1,1′-biphenyl]-2-carboxamide], the EC50 under setting [1] was 0.01 to 10 nM. Regarding `CCc1cccc(CC)c1-n1c(-c2nc(C)cs2)nc(=O)c(Cc2ccc(-c3cccn(C)c3=O)c(F)c2)c1O` [Example 83, 1-(2,6-diethylphenyl)-5-{[3-fluoro-4-(1-methyl-2-oxo-1,2-dihydropyridin-3-yl)phenyl]methyl}-6-hydroxy-2-(4-methyl-1,3-thiazol-2-yl)-1,4-dihydropyrimidin-4-one], under setting [1], the EC50 fell in the range of 0.01 to 10 nM. As for `CCc1cccc(CC)c1-n1c(-c2ccn(C(C)C)n2)nc(=O)c(Cc2ccc(-c3ccc(F)cc3C(N)=O)c(F)c2)c1O` [Example 84, 4′-{[1-(2,6-diethylphenyl)-6-hydroxy-4-oxo-2-[1-(propan-2-yl)-1H-pyrazol-3-yl]-1,4-dihydropyrimidin-5-yl]methyl}-2′,4-difluoro-[1,1′-biphenyl]-2-carboxamide], the EC50 under setting [1] was in the range of 0.01 to 10 nM.

Regarding `CCc1cccc(CC)c1-n1c(-c2ccn(C(C)C)n2)nc(=O)c(Cc2ccc(-c3ccnc(F)c3C)c(F)c2)c1O` [Example 85, 1-(2,6-diethylphenyl)-5-{[3-fluoro-4-(2-fluoro-3-methylpyridin-4-yl)phenyl]methyl}-6-hydroxy-2-[1-(propan-2-yl)-1H-pyrazol-3-yl]-1,4-dihydropyrimidin-4-one], under setting [1], the EC50 fell in the range of 0.01 to 10 nM. For the compound `CCc1cccc(CC)c1-n1c(-c2ccn(C)n2)nc(=O)c(Cc2ccc(-c3ccnc(F)c3C)cc2F)c1O` [Example 86, 1-(2,6-diethylphenyl)-5-{[2-fluoro-4-(2-fluoro-3-methylpyridin-4-yl)phenyl]methyl}-6-hydroxy-2-(1-methyl-1H-pyrazol-3-yl)-1,4-dihydropyrimidin-4-one], the EC50 under setting [1] lay in the range of 0.01 to 10 nM. Turning to `CCc1cccc(CC)c1-n1c(-c2ccn(C(C)C)n2)nc(=O)c(Cc2ccc(-c3cccn(C)c3=O)c(F)c2)c1O` [Example 87, 1-(2,6-diethylphenyl)-5-{[3-fluoro-4-(1-methyl-2-oxo-1,2-dihydropyridin-3-yl)phenyl]methyl}-6-hydroxy-2-[1-(propan-2-yl)-1H-pyrazol-3-yl]-1,4-dihydropyrimidin-4-one], the EC50 under setting [1] is 0.01 to 10 nM.

Take `CCc1cccc(CC)c1-n1c(-c2ccn(C)n2)nc(=O)c(Cc2ccc(-c3cccn(C)c3=O)cc2F)c1O` [Example 88, 1-(2,6-diethylphenyl)-5-{[2-fluoro-4-(1-methyl-2-oxo-1,2-dihydropyridin-3-yl)phenyl]methyl}-6-hydroxy-2-(1-methyl-1H-pyrazol-3-yl)-1,4-dihydropyrimidin-4-one]: the EC50 under setting [1] lay in the range of 0.01 to 10 nM. Same read-out and setting: with `CCc1cccc(CC)c1-n1c(-c2ccn(C)n2)nc(=O)c(Cc2ccc(-c3ccc(F)cc3C(N)=O)cc2F)c1O` [Example 89, 4′-{[1-(2,6-diethylphenyl)-6-hydroxy-2-(1-methyl-1H-pyrazol-3-yl)-4-oxo-1,4-dihydropyrimidin-5-yl]methyl}-3′,4-difluoro-[1,1′-biphenyl]-2-carboxamide] the figure was 0.01 to 10 nM.

Regarding `CCc1cccc(CC)c1-n1c(-c2ccn(CC(C)C)n2)nc(=O)c(Cc2ccc(-c3cccn(C)c3=O)c(F)c2)c1O` [Example 90, 1-(2,6-diethylphenyl)-5-{[3-fluoro-4-(1-methyl-2-oxo-1,2-dihydropyridin-3-yl)phenyl]methyl}-6-hydroxy-2-[1-(2-methylpropyl)-1H-pyrazol-3-yl]-1,4-dihydropyrimidin-4-one], the EC50 under setting [1] lay in the range of 100 to 300 nM.

For the compound `CCc1cccc(CC)c1-n1c(-c2ccn(CC(C)C)n2)nc(=O)c(Cc2ccc(-c3ccnc(F)c3C)c(F)c2)c1O` [Example 91, 1-(2,6-diethylphenyl)-5-{[3-fluoro-4-(2-fluoro-3-methylpyridin-4-yl)phenyl]methyl}-6-hydroxy-2-[1-(2-methylpropyl)-1H-pyrazol-3-yl]-1,4-dihydropyrimidin-4-one], the EC50 under setting [1] lay within 100 to 300 nM. With `CCc1cccc(CC)c1-n1c(-c2ccn(CC(C)C)n2)nc(=O)c(Cc2ccc(-c3ccc(F)cc3C(N)=O)c(F)c2)c1O` [Example 92, 4′-{[1-(2,6-diethylphenyl)-6-hydroxy-2-[1-(2-methylpropyl)-1H-pyrazol-3-yl]-4-oxo-1,4-dihydropyrimidin-5-yl]methyl}-2′,4-difluoro-[1,1′-biphenyl]-2-carboxamide], the EC50 under setting [1] is 10 to 100 nM.

On to `CCc1cccc(CC)c1-n1c(-c2ccn(C3CC3)n2)nc(=O)c(Cc2ccc(-c3cccn(C)c3=O)c(F)c2)c1O` [Example 93, 2-(1-cyclopropyl-1H-pyrazol-3-yl)-1-(2,6-diethylphenyl)-5-{[3-fluoro-4-(1-methyl-2-oxo-1,2-dihydropyridin-3-yl)phenyl]methyl}-6-hydroxy-1,4-dihydropyrimidin-4-one], for which the EC50 under setting [1] lay within 0.01 to 10 nM. As for `CCc1cccc(CC)c1-n1c(-c2ccn(C3CC3)n2)nc(=O)c(Cc2ccc(-c3ccc(F)cc3C(N)=O)c(F)c2)c1O` [Example 94, 4′-{[2-(1-cyclopropyl-1H-pyrazol-3-yl)-1-(2,6-diethylphenyl)-6-hydroxy-4-oxo-1,4-dihydropyrimidin-5-yl]methyl}-2′,4-difluoro-[1,1′-biphenyl]-2-carboxamide], the EC50 under setting [1] was in the range of 0.01 to 10 nM. Take `CCCCc1nc(=O)c(Cc2ccc(-c3ccc(F)nc3C)cc2)c(O)n1[C@@H](CC)c1cccc(C#N)c1` [Example 95, (S)-3-(1-(2-butyl-5-(4-(6-fluoro-2-methylpyridin-3-yl)benzyl)-6-hydroxy-4-oxopyrimidin-1(4H)-yl)propyl)benzonitrile]: the EC50 (read-out: Human APJ cAMP EC50 potency range) was in the range of 0.01 to 10 nM. As for `CCCCc1nc(=O)c(Cc2ccc(-c3cccnc3C)cc2)c(O)n1[C@@H](CC)c1cccc(C#N)c1` [Example 96, 3-[(1S)-1-(2-butyl-6-hydroxy-5-{[4-(2-methylpyridin-3-yl)phenyl]methyl}-4-oxo-1,4-dihydropyrimidin-1-yl)propyl]benzonitrile], under setting [1], the EC50 lay within 0.01 to 10 nM. With `CCCCc1nc(=O)c(Cc2ccc(-c3ccc(F)nc3)cc2)c(O)n1[C@@H](CC)c1cccc(C#N)c1` [Example 97, 3-[(1S)-1-(2-butyl-5-{[4-(6-fluoropyridin-3-yl)phenyl]methyl}-6-hydroxy-4-oxo-1,4-dihydropyrimidin-1-yl)propyl]benzonitrile], the EC50 under setting [1] fell in the range of 0.01 to 10 nM. For the compound `CCCCc1nc(=O)c(Cc2ccc(-c3ccncc3C)cc2)c(O)n1[C@@H](CC)c1cccc(C#N)c1` [Example 98, 3-[(1S)-1-(2-butyl-6-hydroxy-5-{[4-(3-methylpyridin-4-yl)phenyl]methyl}-4-oxo-1,4-dihydropyrimidin-1-yl)propyl]benzonitrile], the EC50 under setting [1] was 0.01 to 10 nM. The same measure, in the same setting: with `CCCCc1nc(=O)c(Cc2ccc(-c3ccnc(F)c3C)cc2)c(O)n1[C@@H](CC)c1cccc(C#N)c1` [Example 99, 3-[(1S)-1-(2-butyl-5-{[4-(2-fluoro-3-methylpyridin-4-yl)phenyl]methyl}-6-hydroxy-4-oxo-1,4-dihydropyrimidin-1-yl)propyl]benzonitrile] the figure was 0.01 to 10 nM.

The record behind these values is patent US11390616B2 (BRISTOL-MYERS SQUIBB COMPANY, priority 2015, dated 2022).
